Results as given in ChEMBL document CHEMBL5338761 (J Med Chem, 2023).

How the values were obtained:
PC-3 = experiment: Antiproliferative activity against human PC-3 cells assessed as inhibition of cell growth incubated for 6 days by CellTiter-Glo assay; format: functional, cell-based; conditions: PC-3, 144 h
TERT-RPE1 [1] = experiment: Antiproliferative activity against human RPE-1 cells expressing wild type BRCA1 assessed as inhibition of cell growth by CellTiter-Glo assay; format: functional, cell-based
TERT-RPE1 [2] = experiment: Antiproliferative activity against BRCA1 knockout human RPE-1 cells assessed as inhibition of cell growth by CellTiter-Glo assay; format: functional, cell-based
DNA polymerase theta [3] = target: T1, DNA polymerase theta (Homo sapiens, UniProt O75417); experiment: Inhibition of POLQ (unknown origin) (1 to 987 residues) using […] as substrate incubated for 30 mins in presence of ATP relative to control
T1 sequence (O75417 whole entry, the tested form may be a part): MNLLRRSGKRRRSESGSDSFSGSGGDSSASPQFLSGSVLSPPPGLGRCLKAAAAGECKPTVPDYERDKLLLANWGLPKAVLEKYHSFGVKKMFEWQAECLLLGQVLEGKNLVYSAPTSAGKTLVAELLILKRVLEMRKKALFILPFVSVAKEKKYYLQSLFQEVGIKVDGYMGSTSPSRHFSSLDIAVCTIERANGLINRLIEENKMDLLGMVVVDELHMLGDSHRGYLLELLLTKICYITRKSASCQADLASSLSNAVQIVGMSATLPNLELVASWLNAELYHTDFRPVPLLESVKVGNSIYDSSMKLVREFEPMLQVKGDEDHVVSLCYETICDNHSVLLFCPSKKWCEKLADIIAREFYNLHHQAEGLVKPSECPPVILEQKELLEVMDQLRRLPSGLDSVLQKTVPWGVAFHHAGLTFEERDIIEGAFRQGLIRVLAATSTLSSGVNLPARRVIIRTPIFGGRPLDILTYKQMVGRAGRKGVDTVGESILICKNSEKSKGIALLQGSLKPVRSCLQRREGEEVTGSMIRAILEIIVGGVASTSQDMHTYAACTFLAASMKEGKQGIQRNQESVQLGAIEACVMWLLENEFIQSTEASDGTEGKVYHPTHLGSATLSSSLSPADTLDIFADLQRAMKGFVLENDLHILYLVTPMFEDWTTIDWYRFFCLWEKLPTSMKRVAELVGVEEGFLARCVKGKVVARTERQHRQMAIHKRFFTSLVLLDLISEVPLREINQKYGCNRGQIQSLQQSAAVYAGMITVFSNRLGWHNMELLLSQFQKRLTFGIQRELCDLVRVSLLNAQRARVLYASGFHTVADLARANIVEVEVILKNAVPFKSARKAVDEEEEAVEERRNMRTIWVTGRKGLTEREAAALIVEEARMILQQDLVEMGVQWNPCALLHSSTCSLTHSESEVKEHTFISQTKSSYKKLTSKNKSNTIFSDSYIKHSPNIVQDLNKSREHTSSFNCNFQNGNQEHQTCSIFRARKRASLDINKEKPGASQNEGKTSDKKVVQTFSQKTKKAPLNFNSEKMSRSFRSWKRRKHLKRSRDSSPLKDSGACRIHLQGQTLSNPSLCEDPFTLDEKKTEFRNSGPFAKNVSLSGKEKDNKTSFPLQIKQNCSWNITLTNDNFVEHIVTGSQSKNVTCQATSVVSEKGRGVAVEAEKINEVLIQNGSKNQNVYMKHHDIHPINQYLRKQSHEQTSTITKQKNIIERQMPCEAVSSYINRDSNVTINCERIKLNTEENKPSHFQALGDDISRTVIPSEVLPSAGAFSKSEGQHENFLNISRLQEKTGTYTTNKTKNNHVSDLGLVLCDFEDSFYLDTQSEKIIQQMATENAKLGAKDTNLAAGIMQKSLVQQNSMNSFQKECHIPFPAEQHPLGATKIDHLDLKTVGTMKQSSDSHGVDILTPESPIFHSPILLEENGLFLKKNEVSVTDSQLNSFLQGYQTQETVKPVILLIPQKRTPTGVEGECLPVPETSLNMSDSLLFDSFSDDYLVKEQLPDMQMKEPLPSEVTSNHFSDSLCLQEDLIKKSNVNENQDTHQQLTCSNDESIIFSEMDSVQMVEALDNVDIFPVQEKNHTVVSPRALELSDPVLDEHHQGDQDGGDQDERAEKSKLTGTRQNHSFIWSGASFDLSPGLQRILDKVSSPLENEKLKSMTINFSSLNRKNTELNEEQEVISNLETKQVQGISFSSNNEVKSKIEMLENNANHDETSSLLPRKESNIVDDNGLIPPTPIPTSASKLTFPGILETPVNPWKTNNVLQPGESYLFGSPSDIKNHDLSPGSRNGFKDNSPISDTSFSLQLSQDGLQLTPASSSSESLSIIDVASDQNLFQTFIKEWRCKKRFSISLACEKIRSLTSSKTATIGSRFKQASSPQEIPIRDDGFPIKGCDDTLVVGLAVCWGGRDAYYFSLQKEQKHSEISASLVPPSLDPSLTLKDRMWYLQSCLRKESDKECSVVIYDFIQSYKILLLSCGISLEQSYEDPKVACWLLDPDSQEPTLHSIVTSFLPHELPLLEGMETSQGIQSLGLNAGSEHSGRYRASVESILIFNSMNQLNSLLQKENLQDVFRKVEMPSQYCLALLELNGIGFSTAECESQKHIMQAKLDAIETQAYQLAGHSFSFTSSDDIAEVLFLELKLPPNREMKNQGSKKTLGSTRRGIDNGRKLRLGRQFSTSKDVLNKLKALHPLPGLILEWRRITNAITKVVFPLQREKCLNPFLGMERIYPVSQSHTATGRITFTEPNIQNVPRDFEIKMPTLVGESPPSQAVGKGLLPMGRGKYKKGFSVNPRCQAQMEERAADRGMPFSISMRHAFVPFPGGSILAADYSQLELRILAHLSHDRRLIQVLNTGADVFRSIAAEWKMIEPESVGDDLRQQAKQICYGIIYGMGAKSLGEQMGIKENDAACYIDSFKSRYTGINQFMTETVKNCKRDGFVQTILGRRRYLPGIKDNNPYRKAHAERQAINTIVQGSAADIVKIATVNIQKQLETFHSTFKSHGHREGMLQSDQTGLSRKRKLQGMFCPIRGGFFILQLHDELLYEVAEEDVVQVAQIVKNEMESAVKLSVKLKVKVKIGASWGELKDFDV

HCT-116 = experiment: Antiproliferative activity against human HCT-116 cells assessed as inhibition of cell growth incubated for 6 days by CellTiter-Glo assay; format: functional, cell-based; conditions: HCT-116, 144 h
MCF7 = experiment: Antiproliferative activity against human MCF7 cells assessed as inhibition of cell growth incubated for 6 days by CellTiter-Glo assay; format: functional, cell-based; conditions: MCF7, 144 h
A549 = experiment: Antiproliferative activity against human A549 cells assessed as inhibition of cell growth incubated for 6 days by CellTiter-Glo assay; format: functional, cell-based; conditions: A549, 144 h
[4] = Antiproliferative activity against human MDA-1986 cells assessed as inhibition of cell growth incubated for 6 days by CellTiter-Glo assay; format: functional, cell-based; conditions: MDA1986, 144 h
DNA polymerase theta [5] = target: T1, DNA polymerase theta; experiment: Inhibition of N-terminal/C-termianl Flag-tagged POLQ (unknown origin) (2 to 2590 residues) expressed in baculovirus incubated for 30 mins by fluorescence based analysis
DNA polymerase theta [6] = target: T1, DNA polymerase theta; experiment: Inhibition of POLQ PD (unknown origin) (1819 to 2590 residues) incubated for 15 mins by luminescence based analysis
DNA polymerase theta [7] = target: T1, DNA polymerase theta; experiment: Inhibition of POLQ PD (unknown origin) (1819 to 2590 residues) incubated for 15 mins by fluorescence based analysis
DNA polymerase theta [8] = target: T1, DNA polymerase theta; experiment: Inhibition of POLQ (unknown origin); format: single protein
DNA polymerase theta [9] = target: T1, DNA polymerase theta; experiment: Inhibition of POLQ PD (unknown origin) (1819 to 2590 residues) by fluorescence based analysis
TERT-RPE1 [10] = experiment: Antiproliferative activity against BRCA1 knockout human RPE-1 cells assessed as fold change in rucaparib IC50 by CellTiter-Glo assay; format: functional
TERT-RPE1 [11] = experiment: Antiproliferative activity against P53 and BRCA1 knockout human RPE-1 cells assessed as inhibition of cell growth by CellTiter-Glo assay; format: functional, cell-based
TERT-RPE1 [12] = experiment: Antiproliferative activity against P53 knockout human RPE-1 cells assessed as inhibition of cell growth by CellTiter-Glo assay; format: functional, cell-based
TOV21G = experiment: Antiproliferative activity against HR knockout human TOV-21G cells assessed as fold change in olaparib IC50 by CellTiter-Glo assay; format: functional
DNA polymerase theta [13] = target: T1, DNA polymerase theta; experiment: Inhibition of POLQ (unknown origin) incubated for 15 mins in presence of ATP and NADPH by absorbance based analysis

Which IC50 (PC-3) does the source give for Cc1c(OC2CCN(C)CC2)ccc2cc(NC(=O)Nc3ccc(C(F)(F)F)cc3)c(=O)oc12 here?
Its IC50 is 60 nM.

And the IC50 (TERT-RPE1 [1])?
The IC50 was 450 nM.

What about the IC50 (TERT-RPE1 [2]) of the same compound?
Its IC50 is 160 nM.

And the inhibition (DNA polymerase theta [3])?
Its inhibition is 50%.

What about the IC50 (HCT-116) of the same compound?
Its IC50 is 800 nM.

And the IC50 (MCF7)?
The IC50 was 460 nM.

What about the IC50 (A549) of the same compound?
Its IC50 is 130 nM.

What about the IC50 [4] of the same compound?
The IC50 was 900 nM.

With Cc1ccc(NC(=O)Nc2cncc(-c3ccc(OCC4(C)CCOC4)c(C)c3)n2)cn1 (centres undefined) as the compound, how does the IC50 (DNA polymerase theta [5]) read?
The IC50 was 2 nM.

Which results are given for CN(C(=O)[C@@H]1CCCN1c1cc(C(F)(F)F)cc(C(F)(F)F)n1)c1ccc(F)cc1?
IC50 (DNA polymerase theta [6]): ≤ 200 nM; IC50 (DNA polymerase theta [7]): ≤ 200 nM

Which IC50 (DNA polymerase theta [8]) does the source give for Cc1nc(NCc2nccn2-c2ccccc2)c(C#N)c(C)c1Cl here?
The IC50 was < 200 nM.

Which IC50 (DNA polymerase theta [8]) does the source give for Cc1nc(NCC(=O)N(C)c2ccccc2)c(C#N)c(C)c1Cl here?
Its IC50 is < 200 nM.

With Cc1cc(C(F)(F)F)cc(N2C(=O)OC[C@H]2c2nc(Cl)cn2-c2ccc(F)c(Cl)c2)n1 as the compound, how does the IC50 (DNA polymerase theta [7]) read?
Its IC50 is 5 nM.

With COc1cccc(-c2cc(C(=O)N[C@H]3CC[C@H](c4ccc(OC5CCNCC5)cc4)CC3)ccc2OC)c1 as the compound, how does the inhibition (DNA polymerase theta [3]) read?
Its inhibition is 70%.

For CN(C(=O)CNc1nc(C(F)(F)F)cc(C(F)(F)F)c1C#N)c1ccc(F)cc1, which IC50 (DNA polymerase theta [9]) is on record?
Its IC50 is < 200 nM.

Which IC50 (TERT-RPE1 [2]) does the source give for CO[C@@H]1[C@@H](OC(N)=O)[C@@H](O)[C@H](Oc2ccc3c(O)c(NC(=O)c4ccc(O)c(CC=C(C)C)c4)c(=O)oc3c2C)OC1(C)C [NOVOBIOCIN] here?
Its IC50 is 86000 nM.

And the “fold change (FC)” value (TERT-RPE1 [10])?
The value was 20.

What about the IC50 (TERT-RPE1 [11]) of the same compound?
The IC50 was 97200 nM.

What about the IC50 (TERT-RPE1 [12]) of the same compound?
The IC50 was 358000 nM.

What about the “fold change (FC)” value (TOV21G) of the same compound?
Its value is 40.

With COc1ccccc1-c1cc(C)ncc1C(=O)Nc1nnc(OCc2ccc(Cl)cn2)s1 as the compound, how does the IC50 (DNA polymerase theta [13]) read?
Its IC50 is ≤ 200 nM.

With COc1cnc(Cl)cc1-c1cc(C)ncc1C(=O)Nc1nnc(OCc2ccc(Cl)cn2)s1 as the compound, how does the IC50 (DNA polymerase theta [13]) read?
The IC50 was ≤ 200 nM.

For CN(C(=O)[C@@H]1CCCN1c1cc(C(F)(F)F)ccn1)c1ccc(F)cc1, which IC50 (DNA polymerase theta [8]) is on record?
The IC50 was < 200 nM.

Which IC50 (DNA polymerase theta [9]) does the source give for N#Cc1c(C(F)(F)F)cc(C(F)(F)F)nc1NCc1nccn1-c1ccc(F)cc1 here?
The IC50 was < 200 nM.

With Cc1nc(SCC(=O)N(C)c2ccccc2)c(C#N)c(C)c1Cl as the compound, how does the IC50 (DNA polymerase theta [6]) read?
The IC50 was 200 nM.

What about the IC50 (DNA polymerase theta [7]) of the same compound?
Its IC50 is 200 nM.

For Cc1cc(-c2nc(NC(=O)N[C@H]3CCCNC3)cs2)ccc1OC[C@]1(C)CCOC1, which IC50 (DNA polymerase theta [5]) is on record?
The IC50 was 7 nM.

With Cc1cccc(N(C)C(=O)[C@@H]2CCCN2c2nc(C)cc(C(F)(F)F)c2C#N)c1 as the compound, how does the IC50 (DNA polymerase theta [8]) read?
Its IC50 is < 200 nM.
